This note sets out measurements from PubChem BioAssay (NCI).

Among the test systems are MDA-MB-231 breast; T-47D breast; OVCAR-8 ovarian; HCT-116 colon; U251 CNS; OVCAR-5 ovarian; NCI-H522 lung; MOLT-4 leukemia; HS 578T breast; TK-10 renal.
Test in all cases: growth of human tumour cells (NCI), 48 h

The structures appear in SMILES notation. Values joined by “and” are separate entries in the source; they are usually repeats but may differ in a detail not shown here. Equal values may be shown once.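 Test compounds were applied to cells in 96-well plates for 48 hours at 5 doses. GI50 is the concentration that inhibits growth by half. TGI is the concentration that stops growth completely.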

Turning to `N#CCNC(=O)c1ccc(-c2ccnc(Nc3ccc(N4CCOCC4)cc3)n2)cc1`, the GI50 in the experiment on MDA-MB-231 breast was 2.26 µM and 2.19 µM; in the experiment with T-47D breast, > 10 µM and 9.94 µM; in the experiment on OVCAR-8 ovarian, 4.26 µM and 3.16 µM; in the experiment with HCT-116 colon, 1.49 µM and 1.19 µM; in the experiment on U251 CNS, 3.46 µM and 1.79 µM; with OVCAR-5 ovarian it was 3.43 µM and 4.07 µM. Besides, the GI50 with NCI-H522 lung was 1.22 µM and 0.713 µM; in the experiment with MOLT-4 leukemia, 2.78 µM and 2.6 µM; in the experiment on HS 578T breast it was 0.506 µM and 0.42 µM; with TK-10 renal it was 0.873 µM and 0.607 µM. The TGI in the experiment on MDA-MB-231 breast was > 100 µM; in the experiment on T-47D breast it was > 10 µM and 99.8 µM; with OVCAR-8 ovarian it was > 73.6 µM; in the experiment with HCT-116 colon, > 24.8 µM; in the experiment on U251 CNS, > 10 µM and 34.8 µM; with OVCAR-5 ovarian, > 54.4 µM. The TGI in the experiment on NCI-H522 lung is > 10 µM and 21.5 µM; in the experiment with MOLT-4 leukemia it was > 100 µM; with HS 578T breast, 4.86 µM and 12.9 µM; in the experiment on TK-10 renal, 8.31 µM and 4.58 µM.
`COc1c(CC=C(C)C)c(O)c(C(CC(C)C)c2c(O)c(CC=C(C)C)c(O)c(C(C)=O)c2O)c(O)c1C(C)=O` (stereo not given): the TGI with MDA-MB-231 breast amounted to 7.66 µM; with T-47D breast it was 16 µM; in the experiment on OVCAR-8 ovarian it was 10.3 µM; in the experiment on HCT-116 colon, 1.6 µM; in the experiment on U251 CNS it was 11.2 µM; in the experiment on OVCAR-5 ovarian, 19.7 µM. For the same compound, the TGI came to 1.48 µM in the experiment with NCI-H522 lung, 2.48 µM in the experiment on MOLT-4 leukemia, 4.63 µM in the experiment with HS 578T breast and 14.6 µM with TK-10 renal.
On to `NCc1ccc(-c2nc(-c3ccc(Cl)c(O)c3)c(-c3ccncc3)[nH]2)cc1`, for which the GI50 was 11.7 µM in the experiment with MDA-MB-231 breast; > 25 µM in the experiment on T-47D breast; > 25 µM in the experiment on OVCAR-8 ovarian; 15.9 µM in the experiment on HCT-116 colon; > 25 µM with U251 CNS; > 25 µM in the experiment on OVCAR-5 ovarian. For the same compound, the GI50 is > 25 µM in the experiment on NCI-H522 lung, > 25 µM in the experiment with MOLT-4 leukemia, 11.9 µM in the experiment with HS 578T breast and > 25 µM with TK-10 renal. Moreover, the TGI in the experiment with MDA-MB-231 breast, with T-47D breast, with OVCAR-8 ovarian, in the experiment with HCT-116 colon, in the experiment on U251 CNS and with OVCAR-5 ovarian was > 25 µM in each case. Further, the TGI with NCI-H522 lung, with MOLT-4 leukemia, with HS 578T breast and in the experiment with TK-10 renal was > 25 µM each time.
Consider `O=S(=O)(NCCCNc1cc(-c2cn(-c3ccccc3)nc2-c2cccc(O)c2)ccn1)c1ccc(F)cc1`, for which the GI50 is 2.48 µM in the experiment on MDA-MB-231 breast; 2.89 µM in the experiment on T-47D breast; 4.15 µM in the experiment on OVCAR-8 ovarian; 2.91 µM in the experiment with HCT-116 colon; 2.97 µM in the experiment with U251 CNS; 3.33 µM in the experiment on OVCAR-5 ovarian. For the same compound, the GI50 in the experiment on NCI-H522 lung was 2.29 µM; with MOLT-4 leukemia it was 2.15 µM; with HS 578T breast, 2.71 µM; in the experiment on TK-10 renal, 7.41 µM. Also, the TGI is 7.19 µM with MDA-MB-231 breast; 8.76 µM in the experiment with T-47D breast; 18.3 µM in the experiment on OVCAR-8 ovarian; 11.7 µM in the experiment with HCT-116 colon; 10.3 µM in the experiment on U251 CNS; 33.5 µM in the experiment on OVCAR-5 ovarian. Further, the TGI in the experiment on NCI-H522 lung was 7.44 µM; in the experiment with MOLT-4 leukemia it was 6.55 µM; in the experiment on HS 578T breast, 9.22 µM; with TK-10 renal, 31.5 µM.
For `CC(=O)N(O)c1ccc(/C=C/c2ccccc2)cc1`, the GI50 with MDA-MB-231 breast was 3.41 µM; with T-47D breast, 0.24 µM; with OVCAR-8 ovarian, 1.59 µM; with HCT-116 colon, 1.12 µM; in the experiment on U251 CNS, 1.23 µM; in the experiment with OVCAR-5 ovarian, 2.35 µM. In addition, the GI50 is 3.58 µM with NCI-H522 lung, 2.27 µM with MOLT-4 leukemia, 3.62 µM in the experiment on HS 578T breast and 1.9 µM in the experiment on TK-10 renal. In addition, the TGI with MDA-MB-231 breast is 21.8 µM; with T-47D breast, > 41.8 µM; in the experiment with OVCAR-8 ovarian it was > 52.5 µM; in the experiment on HCT-116 colon, 13.4 µM; in the experiment with U251 CNS, 3.59 µM; in the experiment with OVCAR-5 ovarian, 9.46 µM. Further, the TGI with NCI-H522 lung was > 41.1 µM; in the experiment on MOLT-4 leukemia, > 100 µM; in the experiment with HS 578T breast, 68.8 µM; with TK-10 renal it was 5.86 µM.
On to `Cc1cc2c(c(=O)o1)C1=S(SC(c3ccccc3)=C1)S2` (stereo not given), for which the TGI with MDA-MB-231 breast was > 100 µM; with T-47D breast, > 100 µM; in the experiment on OVCAR-8 ovarian it was > 100 µM; in the experiment with HCT-116 colon, 60.6 µM; in the experiment with U251 CNS it was 57.2 µM; in the experiment with OVCAR-5 ovarian, > 100 µM. Moreover, the TGI in the experiment on NCI-H522 lung is > 100 µM; in the experiment with MOLT-4 leukemia, > 100 µM; in the experiment on HS 578T breast it was 96 µM; in the experiment with TK-10 renal, 87.4 µM.
Regarding `CC(C)N(Cc1ccc(F)cc1)c1ccc(CO)c(Cl)c1`, the GI50 is 12.4 µM in the experiment on MDA-MB-231 breast; 0.0645 µM in the experiment on T-47D breast; 10.6 µM in the experiment on OVCAR-8 ovarian; 0.0415 µM in the experiment on HCT-116 colon; 0.37 µM in the experiment on U251 CNS; 0.0576 µM with OVCAR-5 ovarian. Also, the GI50 in the experiment with NCI-H522 lung is 11.3 µM; in the experiment on MOLT-4 leukemia, 11 µM; in the experiment with HS 578T breast, 14.8 µM; with TK-10 renal it was 0.0283 µM. Also, the TGI in the experiment with MDA-MB-231 breast came to 25.6 µM; in the experiment on T-47D breast, 0.515 µM; with OVCAR-8 ovarian, 25 µM; with HCT-116 colon it was 3.75 µM; with U251 CNS, 14.4 µM; in the experiment with OVCAR-5 ovarian, 0.247 µM. The TGI turned out to be 26.7 µM in the experiment with NCI-H522 lung, 32.6 µM in the experiment on MOLT-4 leukemia, 37.8 µM with HS 578T breast and 0.173 µM in the experiment on TK-10 renal.
